Source: patent US5023254A, “Aminoalkylindoles, their production, and pharmaceutical preparations based thereon” (Schering Aktiengesellschaft, priority 1988, dated 1991)
Where two headings read alike, the source gives them in different places.

Key:
[1] = tested on: human MCF-7 breast cancer cells; test: [3H] thymidine incorporation in hormone-dependent human MCF-7 breast cancer cells; type: cell-based; settings: for activity at 1 µM / activity at 0.1 µM / activity at 5 µM / activity at 0.5 µM: Homo sapiens, read-out: [3H] Thymidine incorporation (% T/C)
Excerpt: (§1) The test protocol for the research is fully described in Eur.J. Cancer Clin. Oncol.

mouse uterus [2] = test: Antiuterotrophic test on infantile mouse (anti-estrogen activity); type: in vivo; set-up: Antiuterotrophic Test Rel. uterus wgt / Antiuterotrophic Test Action (rel. uterus wgt): unit not given here; settings: for inhibition in vivo at 0.025 mg: dose 25 ug (per animal)
Excerpt: (§2) This test is fully described in Cancer Treatment Reviews 1984, 11, 147, and J.Med.Chem., 1984, 27, 1439.

estrogen receptor = molecular target: T1, estrogen receptor (Bos taurus, UniProt P49884); test: relative binding affinity (RBA) for the estrogen receptor from calf uterus, displacement of 3H-17β estradiol; settings: calf uterus; relative to 17 beta estradiol = 100
T1 construct: estrogen receptor from calf uterus; from tissue; host or cells: calf uterus
T1 sequence (P49884 1-596): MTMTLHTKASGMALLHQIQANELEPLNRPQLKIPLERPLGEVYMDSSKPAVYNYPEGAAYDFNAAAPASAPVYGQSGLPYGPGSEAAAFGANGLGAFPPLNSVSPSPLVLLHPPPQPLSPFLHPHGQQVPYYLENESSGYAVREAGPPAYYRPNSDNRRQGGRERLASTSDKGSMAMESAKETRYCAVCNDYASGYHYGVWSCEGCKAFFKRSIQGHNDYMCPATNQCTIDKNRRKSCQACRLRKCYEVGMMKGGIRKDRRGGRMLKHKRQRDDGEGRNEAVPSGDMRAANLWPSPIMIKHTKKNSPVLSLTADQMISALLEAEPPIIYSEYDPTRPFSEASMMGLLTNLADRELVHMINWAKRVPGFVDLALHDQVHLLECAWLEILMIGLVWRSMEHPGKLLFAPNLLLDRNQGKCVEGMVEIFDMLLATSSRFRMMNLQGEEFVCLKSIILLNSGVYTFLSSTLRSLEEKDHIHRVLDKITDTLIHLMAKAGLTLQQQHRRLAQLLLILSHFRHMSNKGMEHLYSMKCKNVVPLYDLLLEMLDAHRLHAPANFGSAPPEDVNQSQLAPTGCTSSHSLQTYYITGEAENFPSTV
Excerpt: *Relative binding affinities for the estrogen receptor from calf uterus,

mouse uterus [3] = test: Uterotrophic test on infantile mouse (estrogen activity); type: in vivo; set-up: unit not given here
Excerpt: as §2

[4] = tested on: human MCF-7 breast cancer cells; test: growth of hormone-dependent human MCF-7 breast cancer cells, cell count; type: cell-based; settings: for activity at 1 µM / activity at 0.1 µM / activity at 5 µM / activity at 0.5 µM / activity at 10 µM: Homo sapiens, read-out: Cell Count (% T/C); for activity at 10 µM: MCF-7, 1 × 10^-5 M
Excerpt: as §1

[5] = Mus musculus, read-out: Antiuterotrophic Test Inhib. (%)
[6] = infantile mouse, read-out: Antiuterotrophic Test Inhib. (%)
[7] = infantile mouse, dose 5 ug/animal
[8] = infantile mouse, dose 25 ug/animal
[9] = infantile mouse, dose 625 ug/animal
[10] = infantile mouse, dose 625 ug/animal, read-out: Antiuterotrophic Test Inhib. (%)
[11] = 10^-7 M, six days after incubation

Q: With `Cc1c(-c2ccc(O)cc2)n(CCCCN2CCCC2)c2ccc(O)cc12` [Compound 1, 5-Hydroxy-2-(4-hydroxyphenyl)-3-methyl-1-[4-pyrrolidino-butyl]-indole] as the compound, how does the activity at 1 µM ([1]; MCF7, MCF-7, 1 × 10^-6 M) read?
A: The activity at 1 µM was 85%.

Q: And the activity at 0.1 µM ([1]; MCF7, MCF-7, 1 × 10^-7 M)?
A: The activity at 0.1 µM was 67%.

Q: And the activity at 5 µM ([1]; MCF7, MCF-7, 5 × 10^-6 M)?
A: The activity at 5 µM was 74%.

Q: And the activity at 0.5 µM ([1]; MCF7, MCF-7, 5 × 10^-7 M)?
A: Its activity at 0.5 µM is 76%.

Q: And the inhibition in vivo at 0.125 mg (mouse uterus [2]; [5])?
A: The inhibition in vivo at 0.125 mg was 53%.

Q: And the “Antiuterotrophic Test Rel. uterus wgt” value (mouse uterus [2]; infantile mouse, dose 1 ug)?
A: The value was 43.7 ± 8.2.

Q: What about the inhibition in vivo at 0.001 mg (mouse uterus [2]; infantile mouse, dose 1 ug, read-out: Antiuterotrophic Test Inhib. (%)) of the same compound?
A: The inhibition in vivo at 0.001 mg was 5%.

Q: What about the “Antiuterotrophic Test Rel. uterus wgt” value (mouse uterus [2]; infantile mouse, dose 5 ug) of the same compound?
A: The value was 47.6 ± 10.5.

Q: What about the “Antiuterotrophic Test Rel. uterus wgt” value (mouse uterus [2]; infantile mouse, dose 25 ug) of the same compound?
A: Its value is 16.2 ± 4.6.

Q: What about the inhibition in vivo at 0.025 mg (mouse uterus [2]; [6]) of the same compound?
A: Its inhibition in vivo at 0.025 mg is 78%.

Q: And the “Antiuterotrophic Test Rel. uterus wgt” value (mouse uterus [2]; infantile mouse, dose 125 ug)?
A: The value was 25.5 ± 7.9.

Q: And the “RBA (relative binding affinity for the estrogen receptor)” value (estrogen receptor)?
A: The value was 3.6.

Q: And the “Uterotrophic Test Rel. uterus wgt” value (mouse uterus [3]; dose 1 ug)?
A: The value was 7.6 ± 2.8.

Q: And the “Uterotrophic Test Rel. uterus wgt” value (mouse uterus [3]; dose 5 ug)?
A: Its value is 8.0 ± 3.1.

Q: And the “Uterotrophic Test Rel. uterus wgt” value (mouse uterus [3]; dose 25 ug)?
A: The value was 6.4 ± 1.1.

Q: And the “Uterotrophic Test Rel. uterus wgt” value (mouse uterus [3]; dose 125 ug)?
A: The value was 6.4 ± 1.3.

Q: What about the activity at 1 µM ([4]; MCF7, MCF-7, 1 × 10^-6 M) of the same compound?
A: The activity at 1 µM was 94%.

Q: And the activity at 0.1 µM ([4]; MCF7, MCF-7, 1 × 10^-7 M)?
A: Its activity at 0.1 µM is 106%.

Q: And the activity at 5 µM ([4]; MCF7, MCF-7, 5 × 10^-6 M)?
A: Its activity at 5 µM is 62%.

Q: And the activity at 0.5 µM ([4]; MCF7, MCF-7, 5 × 10^-7 M)?
A: Its activity at 0.5 µM is 84%.

Q: Which activity at 0.1 µM ([1]; MCF7, […]) does the source give for `Cc1c(-c2ccc(O)cc2)n(CCCCCCN2CCCC2)c2ccc(O)cc12` [Compound 6, 5-Hydroxy-2-(4-hydroxyphenyl)-3-methyl-1-[6-pyrrolidino-hexyl]-indole] here?
A: Its activity at 0.1 µM is 32%.

Q: And the activity at 0.5 µM ([1]; MCF7, […])?
A: Its activity at 0.5 µM is 32%.

Q: What about the activity at 1 µM ([1]; MCF7, […]) of the same compound?
A: Its activity at 1 µM is 22%.

Q: And the activity at 5 µM ([1]; MCF7, […])?
A: The activity at 5 µM was 3%.

Q: What about the inhibition in vivo at 0.001 mg (mouse uterus [2]; Mus musculus, read-out: Antiuterotrophic Test Inhib. (%), infantile mouse, dose 1 ug) of the same compound?
A: Its inhibition in vivo at 0.001 mg is 20%.

Q: What about the “Antiuterotrophic Test Rel. uterus wgt” value (mouse uterus [2]; infantile mouse, dose 1 ug) of the same compound?
A: Its value is 48.3 ± 7.2.

Q: And the “Antiuterotrophic Test Rel. uterus wgt” value (mouse uterus [2]; infantile mouse, dose 5 ug)?
A: Its value is 20.1 ± 7.3.

Q: What about the “Antiuterotrophic Test Rel. uterus wgt” value (mouse uterus [2]; infantile mouse, dose 25 ug) of the same compound?
A: Its value is 12.6 ± 1.9.

Q: And the “Antiuterotrophic Test Rel. uterus wgt” value (mouse uterus [2]; infantile mouse, dose 125 ug)?
A: The value was 8.9 ± 1.6.

Q: What about the “Uterotrophic Test Rel. uterus wgt” value (mouse uterus [3]; dose 5 ug) of the same compound?
A: The value was 9.0 ± 1.8.

Q: What about the “Uterotrophic Test Rel. uterus wgt” value (mouse uterus [3]; dose 50 ug) of the same compound?
A: The value was 8.2 ± 1.8.

Q: What about the “Uterotrophic Test Rel. uterus wgt” value (mouse uterus [3]; dose 250 ug) of the same compound?
A: Its value is 12.7 ± 2.7.

Q: And the activity at 0.1 µM ([4]; MCF7, […])?
A: The activity at 0.1 µM was 65%.

Q: And the activity at 0.5 µM ([4]; MCF7, […])?
A: Its activity at 0.5 µM is 49%.

Q: What about the activity at 1 µM ([4]; MCF7, […]) of the same compound?
A: Its activity at 1 µM is 24%.

Q: And the activity at 5 µM ([4]; MCF7, […])?
A: Its activity at 5 µM is 12%.

Q: What does the source list for `CCN(CC)C(=O)CCCCCn1c(-c2ccc(O)cc2)c(C)c2cc(O)ccc21` [Compound 19, 1-(6-Diethylcarbamoylpentyl)-5-hydroxy-2-(4-hydroxyphenyl)-3-methylindole]?
A: inhibition in vivo at 0.125 mg (mouse uterus [2]; [5]): 34%; inhibition in vivo at 0.005 mg (mouse uterus [2]; infantile mouse, dose 5 ug (per animal), read-out: Antiuterotrophic Test Inhib. (%)): 13%; Antiuterotrophic Test Action (rel. uterus wgt) (mouse uterus [2]; [7]): 50.9 ± 8.2; inhibition in vivo at 0.025 mg (mouse uterus [2]; [6]): 13%; Antiuterotrophic Test Action (rel. uterus wgt) (mouse uterus [2]; [8]): 50.9 ± 4.8; Antiuterotrophic Test Action (rel. uterus wgt) (mouse uterus [2]; [9]): 35.3 ± 6.1; inhibition in vivo at 0.625 mg (mouse uterus [2]; [10]): 66%; RBA (relative binding affinity for the estrogen receptor) (estrogen receptor): 15; Uterotrophic Test Action (rel. uterus wgt) (mouse uterus [3]; dose 5 ug/animal): 18.4 ± 3.2; Uterotrophic Test Action (rel. uterus wgt) (mouse uterus [3]; dose 25 ug/animal): 17.9 ± 2.0; Uterotrophic Test Action (rel. uterus wgt) (mouse uterus [3]; dose 625 ug/animal): 32.7 ± 6.5; activity at 10 µM ([4]; MCF7): 44.9 ± 3.7%; activity at 1 µM ([4]; MCF7, MCF-7, 1 × 10^-6 M): 61.4 ± 4.4%; activity at 0.1 µM ([4]; MCF7, MCF-7, 1 × 10^-7 M): 59.7 ± 6.1%; activity at 5 µM ([4]; MCF7, MCF-7, 5 × 10^-6 M): 56.2 ± 4.5%; activity at 0.5 µM ([4]; MCF7, MCF-7, 5 × 10^-7 M): 60.1 ± 3.8%

Q: How did the “Antiuterotrophic Test Action (rel. uterus wgt)” value (shortened to “Antiuterotrophic Test Action”) (mouse uterus [2]; [7]) turn out when `Cc1c(-c2ccc(O)cc2)n(CCCCCC(=O)NCc2ccccc2)c2ccc(O)cc12` [Compound 20, 1-(6-Benzylcarbamoylpentyl)-5-hydroxy-2-(4-hydroxyphenyl)-3-methylindole] was run?
A: The value was 50.7 ± 5.0.

Q: And the inhibition in vivo at 0.025 mg (mouse uterus [2]; [6])?
A: The inhibition in vivo at 0.025 mg was 12%.

Q: And the “Antiuterotrophic Test Action” value (mouse uterus [2]; [8])?
A: Its value is 46.9 ± 7.7.

Q: And the “Antiuterotrophic Test Action” value (mouse uterus [2]; [9])?
A: Its value is 59.5 ± 12.4.

Q: What about the inhibition in vivo at 0.625 mg (mouse uterus [2]; [10]) of the same compound?
A: The inhibition in vivo at 0.625 mg was -23%.

Q: What about the “RBA (relative binding affinity for the estrogen receptor)” value (estrogen receptor) of the same compound?
A: Its value is 12.

Q: What about the “Uterotrophic Test Action (rel. uterus wgt)” value (mouse uterus [3]; dose 5 ug/animal) of the same compound?
A: Its value is 16.5 ± 3.6.

Q: And the “Uterotrophic Test Action (rel. uterus wgt)” value (mouse uterus [3]; dose 25 ug/animal)?
A: Its value is 20.9 ± 6.5.

Q: And the “Uterotrophic Test Action (rel. uterus wgt)” value (mouse uterus [3]; dose 625 ug/animal)?
A: Its value is 19.9 ± 4.1.

Q: What about the activity at 10 µM ([4]; MCF7) of the same compound?
A: The activity at 10 µM was 26.8 ± 4.2%.

Q: What about the activity at 1 µM ([4]; MCF7, MCF-7, 1 × 10^-6 M) of the same compound?
A: Its activity at 1 µM is 46.8 ± 4.2%.

Q: What about the activity at 0.1 µM ([4]; MCF7, MCF-7, 1 × 10^-7 M) of the same compound?
A: The activity at 0.1 µM was 58.3 ± 4.9%.

Q: And the activity at 5 µM ([4]; MCF7, MCF-7, 5 × 10^-6 M)?
A: The activity at 5 µM was 36.6 ± 2.5%.

Q: And the activity at 0.5 µM ([4]; MCF7, MCF-7, 5 × 10^-7 M)?
A: The activity at 0.5 µM was 47.9 ± 3%.

Q: For `CC/C(=C(\c1ccccc1)c1ccc(OCCN(C)C)cc1)c1ccccc1` [Tamoxifen, reference compound], which “thymidine incorporation (in words)” value [1, 11] is on record?
A: Its value is “no significant effect”.

Q: What about the activity at 1 µM ([1]; MCF7, MCF-7, 1 × 10^-6 M) of the same compound?
A: Its activity at 1 µM is 27%.

Q: What about the activity at 0.1 µM ([1]; MCF7, MCF-7, 1 × 10^-7 M) of the same compound?
A: The activity at 0.1 µM was 71%.

Q: And the “inhibition of MCF-7 cell growth / cell count (in words)” value [4, 11]?
A: Its value is “no significant effect”.

Q: And the activity at 1 µM ([4]; MCF7, MCF-7, 1 × 10^-6 M)?
A: The activity at 1 µM was 27%.

Q: What about the activity at 0.1 µM ([4]; MCF7, MCF-7, 1 × 10^-7 M) of the same compound?
A: Its activity at 0.1 µM is 77%.
